In PubChem BioAssay (NCI):
Several values for one entry are separate records, joined by “and”; a condition that tells them apart may be missing. Equal values may be shown once.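 Briefly, cells in 96-well plates were exposed to five compound concentrations for 48 h, and endpoints were estimated by linear interpolation. Here, GI50 denotes the concentration required for 50% inhibition of growth. Definition used: TGI = concentration required for complete inhibition of growth.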

What was measured:
Assay in all cases: NCI anticancer screen, dose series, 48 h
SF-268 CNS = tested on: SF-268 CNS
OVCAR-3 ovarian = tested on: OVCAR-3 ovarian
OVCAR-4 ovarian = tested on: OVCAR-4 ovarian
SK-MEL-5 melanoma = tested on: SK-MEL-5 melanoma
CCRF-CEM leukemia = tested on: CCRF-CEM leukemia
SK-MEL-2 melanoma = tested on: SK-MEL-2 melanoma
A498 renal = tested on: A498 renal
EKVX NSCLC = tested on: EKVX NSCLC
SNB-19 CNS = tested on: SNB-19 CNS
HCT-15 colon = tested on: HCT-15 colon

| SMILES | TGI (SF-268 CNS) | TGI (OVCAR-3 ovarian) | TGI (OVCAR-4 ovarian) | TGI (SK-MEL-5 melanoma) | TGI (CCRF-CEM leukemia) | TGI (SK-MEL-2 melanoma) | TGI (A498 renal) | TGI (EKVX NSCLC) | TGI (SNB-19 CNS) | TGI (HCT-15 colon) | GI50 (SF-268 CNS) | GI50 (OVCAR-3 ovarian) | GI50 (OVCAR-4 ovarian) | GI50 (SK-MEL-5 melanoma) | GI50 (CCRF-CEM leukemia) | GI50 (SK-MEL-2 melanoma) | GI50 (A498 renal) | GI50 (EKVX NSCLC) | GI50 (HCT-15 colon) | GI50 (SNB-19 CNS) |
| --- | --- | --- | --- | --- | --- | --- | --- | --- | --- | --- | --- | --- | --- | --- | --- | --- | --- | --- | --- | --- |
| C=CCN=C1NC(=O)C(CC(=O)Nc2cccc(Cl)c2)S1 (stereo not drawn) | > 100 µM | > 100 µM | > 100 µM | > 100 µM | > 100 µM | > 100 µM | > 100 µM | > 100 µM | > 100 µM | > 100 µM |  |  |  |  |  |  |  |  |  |  |
| Cc1cccc2c(=O)c3c(sc12)c(NCCCN)nc1ccccc13 | 3.17 µM | 3.16 µM | 3.25 µM | 3.18 µM | 3.13 µM | 3.65 µM | 5.64 µM | 3.14 µM |  | 2.84 µM | 1.53 µM | 1.68 µM | 1.58 µM | 1.74 µM | 1.32 µM | 1.85 µM | 1.88 µM | 1.58 µM | 1.35 µM |  |
| C=C(C)[C@@H]1C/C=C(/COC(C)=O)CC[C@H]2O[C@@]2(C)CC/C=C(\C)CC1 | > 100 µM | > 100 µM | > 100 µM | > 100 µM | 54.8 µM | > 100 µM | > 100 µM |  | > 100 µM | > 100 µM | > 100 µM | > 100 µM | > 100 µM | > 100 µM | 26.9 µM | > 100 µM | > 100 µM |  | > 100 µM | > 100 µM |
| CC1CCCc2c1n[nH]c2CC1CC(=O)NC(=O)C1 (stereo not drawn) | > 100 µM | > 100 µM | > 100 µM |  | > 100 µM |  | > 100 µM | > 100 µM | > 100 µM | > 100 µM |  |  |  |  |  |  |  |  |  |  |
| CSc1ccc(Cc2cc(C(C)(C)C)cc(C(C)(C)C)c2O)cc1 | 29.7 µM |  | 28.9 µM | 28.9 µM | 40 µM | 16.3 µM | 29.3 µM | 32.1 µM | 29.9 µM | 27.6 µM |  |  |  |  |  |  |  |  |  |  |
| CC1=NC(C)=C(/C(C)=N/NC(=O)c2ccccc2O)C(C)/C1=C(/C)NNC(=O)c1ccccc1O (stereo not drawn) | > 100 µM | 66.7 µM | 48.4 µM | 38.9 µM |  |  | 99.6 µM | 48.4 µM | > 100 µM | 99 µM |  |  |  |  |  |  |  |  |  |  |
| C/C(COc1ccc2oc(-c3ccccc3)cc(=O)c2c1)=N\O | > 100 µM | 54.2 µM | > 100 µM |  | > 100 µM | > 100 µM |  | 26.6 µM | > 100 µM | > 100 µM | 24.3 µM | 7.39 µM | > 100 µM |  | 41.4 µM | > 100 µM |  | 2.89 µM | 7.87 µM | 26.7 µM |
| Oc1cccc2cccnc12 | > 100 µM |  | > 87.6 µM and 83.3 µM and > 100 µM | 36.7 µM and 45.2 µM and > 71.7 µM |  | > 74.5 µM | 27.7 µM and 56.4 µM and > 100 µM | > 100 µM | > 100 µM | > 100 µM | 4.04 µM and 32.7 µM and 3.29 µM |  | 6.13 µM and 19.9 µM and 3.37 µM |  |  | > 20.7 µM and 8.34 µM |  |  | 2.04 µM and 5.51 µM and 2.52 µM | 23.6 µM and 96.4 µM and 38.9 µM |
| C/C(=N\NC(=O)c1ccccc1O)c1c(O)cc(C)oc1=O | > 100 µM | > 100 µM | > 100 µM | > 100 µM |  | > 100 µM | > 100 µM | 88.6 µM | > 100 µM | > 100 µM |  |  |  |  |  |  |  |  |  |  |
| COc1ccc(C2=NN(C(C)=O)c3nc4ccccc4nc3O2)cc1 | > 100 µM | > 100 µM | 98.4 µM |  | > 100 µM | > 100 µM |  | > 100 µM | 87.7 µM | > 100 µM |  |  |  |  |  |  |  |  |  |  |
| CC(=O)CCc1ccc(Oc2c3ccccc3nc3occc23)cc1 | 38.1 µM | 31.6 µM | > 100 µM |  | 94.7 µM |  | 29.2 µM |  | 48 µM | 73.7 µM | 18.9 µM | 14 µM | 37.6 µM |  | 24.1 µM |  | 15.8 µM |  | 18.6 µM | 19.5 µM |
| CCCC[C@H](CCc1ccccc1)N(C(=O)OC)N1CCC[C@H]1COC | 43 µM | 32.3 µM | 39.9 µM | 32.9 µM | 31.3 µM | 34.1 µM | 34.6 µM | 35.2 µM | 30.4 µM |  |  |  |  |  |  |  |  |  |  |  |
| O=C(N/C(=C\c1cccc([N+](=O)[O-])c1)c1nc2c3c(ccc2[nH]1)C(=O)c1ccccc1C3=O)c1ccccc1 | > 100 µM | > 100 µM |  | > 100 µM |  | > 100 µM | > 100 µM | > 100 µM | > 100 µM | > 100 µM |  |  |  |  |  |  |  |  |  |  |
| CCCCCCCCCCNC(=S)OC | > 100 µM |  | > 100 µM | 54.1 µM | > 100 µM |  | > 100 µM | > 100 µM | > 100 µM | 86.7 µM |  |  |  |  |  |  |  |  |  |  |
| COC(=O)CCCCCOS(=O)(=O)c1ccc(C)cc1 | > 100 µM | > 100 µM |  | > 100 µM | > 100 µM | > 100 µM | > 100 µM | > 100 µM | > 100 µM | > 100 µM |  |  |  |  |  |  |  |  |  |  |
| CC(=O)N(N=O)c1ccc(N(N=O)C(C)=O)cc1 | > 100 µM | > 100 µM | > 100 µM | > 100 µM | > 100 µM | > 100 µM | > 100 µM |  | > 100 µM | > 100 µM |  |  |  |  |  |  |  |  |  |  |
| O=C(/C=C/c1ccc(-c2ccccc2)cc1)c1ccccc1 | 70.1 µM |  | > 100 µM | 49 µM | > 100 µM | 33.6 µM | 45.7 µM | 50.8 µM |  | 54.9 µM |  |  |  |  |  |  |  |  |  |  |
| CCCCNC(=O)Oc1ccc(/C(=C(\C)c2ccc(OC)cc2)c2ccc(OCCN3CCCCC3)cc2)cc1 | 20.5 µM | 4.51 µM | 8.2 µM | 3.08 µM | 9.78 µM | 17.4 µM |  | 22.9 µM | 15.2 µM | 4.52 µM | 5.55 µM | 2.09 µM | 2.29 µM | 1.68 µM | 2.81 µM | 4.65 µM |  | 5.18 µM | 1.67 µM | 3.95 µM |
| Cc1cc(C)c([I+]c2c(C)cc(C)cc2C)c(C)c1 | 2.23 µM | 1.62 µM | 1.35 µM | 0.476 µM | 2.24 µM | 1.61 µM | 3.64 µM |  | 1.76 µM | 6.76 µM | 0.615 µM | 0.379 µM | 0.277 µM | 0.201 µM | 0.365 µM | 0.482 µM | 1.56 µM |  | 2.15 µM | 0.444 µM |
